Test results published in article PMC2185538, “Purification of the full-length Xenopus interphotoreceptor retinoid binding protein and growth of diffraction-quality crystals” (Molecular Vision, 2007).

Target: T1, Xenopus interphotoreceptor retinoid-binding protein (xIRBP) (Xenopus laevis, UniProt Q7SZI7)
T1 construct: gene rbp3; recombinant full-length four-module xIRBP (1197 amino acids; 131 kDa), free of its thioredoxin fusion partner; vector-derived N-terminal G-L-G-D-P
Assay: fluorescence titration: retinol fluorescence enhancement (also tryptophan quenching, Kd […], and energy transfer, Kd […])

T1 sequence (Q7SZI7 23-1219): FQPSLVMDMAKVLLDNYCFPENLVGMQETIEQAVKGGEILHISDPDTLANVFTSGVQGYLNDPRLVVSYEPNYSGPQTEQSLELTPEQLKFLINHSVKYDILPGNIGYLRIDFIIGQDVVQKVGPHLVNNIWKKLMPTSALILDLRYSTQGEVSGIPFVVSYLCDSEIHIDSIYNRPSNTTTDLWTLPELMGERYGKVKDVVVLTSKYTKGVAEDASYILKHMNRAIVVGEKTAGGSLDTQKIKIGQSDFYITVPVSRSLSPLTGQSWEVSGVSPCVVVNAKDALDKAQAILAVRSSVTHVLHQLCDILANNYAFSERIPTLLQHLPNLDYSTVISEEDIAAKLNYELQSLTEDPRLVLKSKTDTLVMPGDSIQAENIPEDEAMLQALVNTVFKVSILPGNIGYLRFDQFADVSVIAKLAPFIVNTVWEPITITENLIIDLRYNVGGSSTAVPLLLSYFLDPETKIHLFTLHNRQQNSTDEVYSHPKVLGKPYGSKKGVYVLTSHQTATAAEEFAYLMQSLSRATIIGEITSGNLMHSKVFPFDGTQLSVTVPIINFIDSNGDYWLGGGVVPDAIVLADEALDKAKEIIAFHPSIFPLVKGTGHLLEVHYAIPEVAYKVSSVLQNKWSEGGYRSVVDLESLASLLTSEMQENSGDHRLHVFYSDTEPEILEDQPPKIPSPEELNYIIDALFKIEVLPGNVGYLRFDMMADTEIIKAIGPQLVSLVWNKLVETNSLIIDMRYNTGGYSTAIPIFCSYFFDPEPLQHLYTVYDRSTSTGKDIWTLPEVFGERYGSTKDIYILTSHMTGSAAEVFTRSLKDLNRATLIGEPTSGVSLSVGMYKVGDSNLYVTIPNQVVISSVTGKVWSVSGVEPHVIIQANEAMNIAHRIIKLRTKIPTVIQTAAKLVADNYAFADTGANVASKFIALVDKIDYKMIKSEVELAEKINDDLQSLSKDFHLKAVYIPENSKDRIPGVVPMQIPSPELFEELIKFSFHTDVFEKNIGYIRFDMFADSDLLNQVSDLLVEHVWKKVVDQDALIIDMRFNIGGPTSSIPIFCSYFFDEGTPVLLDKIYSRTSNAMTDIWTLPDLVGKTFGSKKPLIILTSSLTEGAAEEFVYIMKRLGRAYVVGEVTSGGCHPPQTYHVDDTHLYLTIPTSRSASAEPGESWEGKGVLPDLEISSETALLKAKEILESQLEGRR

Kd: 150 ± 30 nM
Structure (SMILES): CC1=C(/C=C/C(C)=C/C=C/C(C)=C/CO)C(C)(C)CCC1 [all-trans retinol]
